IC50 data for 17 compounds are collected here from patent publication US11124495B2, “Tetrahydroisoquinolines and terahydronaphthyridines for the treatment of hepatitis B virus infection” (Hoffmann-La Roche Inc., priority 2016, dated 2021).

This test deals with HBsAg. The test is described as follows: HBsAg assay (CLIA on supernatant of HepG2.2.15 cells). It is filed as cell-based, HBV. The settings on record: Hepatitis B virus, HepG2.2.15, read-out: IC50 in HBsAg assay, HepG2.2.15 cells; HBsAg secretion reduced by 50% compared to the no drug control. As to the method: HepG2.2.15 cells (Acs et al. Proc Natl Acad Sci USA, 84, (1987), 4641-4), a constitutively HBV-expressing cell line were cultured in DMEM+Glutamax-I medium (Invitrogen, Carlsbad, Calif., USA), supplemented with 10% fetal bovine serum (Invitrogen) and G418 (Invitrogen) at a final concentration of 200 mg/L and maintained in 5% CO2 at 37° C.
HepG2.2.15 cells were seeded in duplicate into white, 96-well plates at 1.5×10^4 cells/well. The cells were treated with a three-fold serial dilution series of the compounds in DMSO. The final DMSO concentration in all wells was 1% and DMSO was used as no drug control.
The HBsAg chemiluminescence immunoassay (CLIA) kit (Autobio Diagnostics Co., Zhengzhou, China, Catalog number: CL0310-2) was used to measure the levels of secreted HBV antigens semi-quantitatively. For the detection 50 μL/well culture supernatant was used and HBsAg was quantified using HBsAg chemiluminescence immunoassay (CLIA) kit (Autobio Diagnostics Co., Zhengzhou, China, Catalog number: CL0310-2), 50 μL of the supernatant was transferred to the CLIA assay plate and 50 μL of enzyme conjugate reagent was added into each well. The plates were sealed and gently agitated for 1 hour at room temperature. The supernatant-enzyme-mixture was discarded and wells were washed 6 times with 300 μL of PBS. The residual liquid was removed by plating the CLIA plate right side down on absorbent tissue paper. 25 μL of substrates A and B were added to each well. Luminance was measured using a luminometer (Mithras LB 940 Multimode Microplate Reader) after 10 minutes incubation. Dose-response curves were generated and the IC50 value was extrapolated by using the E-WorkBook Suite (ID Business Solutions Ltd., Guildford, UK). The IC50 was defined as the compound concentration at which HBsAg secretion was reduced by 50% compared to the no drug control.
The compounds according to formula I were tested for their capacity to inhibit HBsAg as described herein.
As usually defined, the IC50 is the concentration that gives 50% inhibition. Turning to `COc1cc(F)c2c(c1)CN(c1cnc(-c3ncccn3)nc1)CC2` [Example 5, 5-Fluoro-7-methoxy-2-(2-pyrimidin-2-ylpyrimidin-5-yl)-3,4-dihydro-1H-isoquinoline], the IC50 amounted to 355 nM.

Take `CN(C)c1cccc2c1CCN(c1cnc(-c3ncccn3)nc1)C2` [Example 30, N,N-Dimethyl-2-(2-pyrimidin-2-ylpyrimidin-5-yl)-3,4-dihydro-1H-isoquinolin-5-amine]: the IC50 worked out at 43300 nM.

For `COc1cc(F)c2c(c1)C(C)N(c1cnc(-c3ncccn3)nc1)CC2` (centres unmarked) [Example 7, 5-Fluoro-7-methoxy-1-methyl-2-(2-pyrimidin-2-ylpyrimidin-5-yl)-3,4-dihydro-1H-isoquinoline], the IC50 is 315 nM.

For `COc1cc(Cl)cc2c1CCN(c1cnc(-c3ncccn3)nc1)C2` [Example 32, 7-Chloro-5-methoxy-2-(2-pyrimidin-2-ylpyrimidin-5-yl)-3,4-dihydro-1H-isoquinoline], the IC50 stood at 251 nM.

Turning to `c1cnc(-c2ncc(N3CCc4c(cccc4C4CC4)C3)cn2)nc1` [Example 29, 5-Cyclopropyl-2-(2-pyrimidin-2-ylpyrimidin-5-yl)-3,4-dihydro-1H-isoquinoline], the IC50 came to 6890 nM.

`COc1cc2c(cc1OC)CN(c1ccc(-c3ccccn3)nc1)CC2` [Example 10, 6,7-Dimethoxy-2-[6-(2-pyridyl)-3-pyridyl]-3,4-dihydro-1H-isoquinoline]: the concentration for half-maximal inhibition (IC50) was found to be 3120 nM.

In the case of `Fc1cc(OCC2CC2)cc2c1CCN(c1cnc(-c3ncccn3)nc1)C2` [Example 21, 7-(Cyclopropylmethoxy)-5-fluoro-2-(2-pyrimidin-2-ylpyrimidin-5-yl)-3,4-dihydro-1H-isoquinoline], the IC50 was 244 nM.

As for `Cc1ccc2c(c1)CN(c1cnc(-c3ncccn3)nc1)CC2` [Example 17, 7-Methyl-2-(2-pyrimidin-2-ylpyrimidin-5-yl)-3,4-dihydro-1H-isoquinoline], the IC50 was found to be 2010 nM.

Consider `Fc1cccc2c1CCN(c1cnc(-c3ncccn3)nc1)C2` [Example 27, 5-Fluoro-2-(2-pyrimidin-2-ylpyrimidin-5-yl)-3,4-dihydro-1H-isoquinoline], for which the IC50 was determined as 3030 nM.

On to `CN(C)c1ccc2c(c1)CN(c1cnc(-c3ncccn3)nc1)CC2` [Example 16, N,N-Dimethyl-2-(2-pyrimidin-2-ylpyrimidin-5-yl)-3,4-dihydro-1H-isoquinolin-7-amine], for which the IC50 is 406 nM.

In the case of `COc1cc2c(cn1)CCN(c1cnc(-c3ncccn3)nc1)C2` [Example 13, 7-Methoxy-2-(2-pyrimidin-2-ylpyrimidin-5-yl)-3,4-dihydro-1H-2,6-naphthyridine], the IC50 was determined as 3700 nM.

For the compound `N#Cc1cccc2c1CCN(c1cnc(-c3ncccn3)nc1)C2` [Example 25, 2-(2-Pyrimidin-2-ylpyrimidin-5-yl)-3,4-dihydro-1H-isoquinoline-5-carbonitrile], the IC50 was found to be 1190 nM.

As to `Clc1ccc2c(c1)CCN(c1cnc(-c3ncccn3)nc1)C2` [Example 9, 6-Chloro-2-(2-pyrimidin-2-ylpyrimidin-5-yl)-3,4-dihydro-1H-isoquinoline], the IC50 was 2520 nM.

On to `COc1ccc2c(c1)CN(c1cnc(-c3ncccn3)nc1)CC2` [Example 14, 7-Methoxy-2-(2-pyrimidin-2-ylpyrimidin-5-yl)-3,4-dihydro-1H-isoquinoline], for which the IC50 was found to be 990 nM.

As to `CN(C)c1ccc2c(c1)CCN(c1cnc(-c3ncccn3)nc1)C2` [Example 23, N,N-Dimethyl-2-(2-pyrimidin-2-ylpyrimidin-5-yl)-3,4-dihydro-1H-isoquinolin-6-amine], the IC50 came out at 2220 nM.

Turning to `N#Cc1ccc2c(c1)CN(c1cnc(-c3ncccn3)nc1)CC2` [Example 20, 2-(2-Pyrimidin-2-ylpyrimidin-5-yl)-3,4-dihydro-1H-isoquinoline-7-carbonitrile], the IC50 amounted to 8640 nM.

`CNc1ccc2c(c1)CN(c1cnc(-c3ncccn3)nc1)CC2` [Example 18, N-Methyl-2-(2-pyrimidin-2-ylpyrimidin-5-yl)-3,4-dihydro-1H-isoquinolin-7-amine]: the IC50 stood at 4640 nM.
